Series [1] can be described thus: Drug release study by dialysis in PBS pH 7.4 (physiological stability). Conditions: 10 mM PBS pH 7.4, 37° C. The class given is physicochemical. On the procedure: The dialysis tube was immersed in total 30 mL of 10 mM PBS (pH 7.4). The dialysis tube was then incubated at 37° C. on an orbital shaker at 50 rpm. […] The dialysis tube was then immersed in total 30 mL of 100 mM phosphate buffer (pH 6) at 37° C. At predetermined time points, the amount of cisplatin released in the medium was determined by ICP-MS as described above. […] This rapid drug leakage was caused by the dissociation of HA/cisplatin complexes via the replacement of the carboxylate ligand of Pt(II) with the chloride ion in PBS.

A short description of series [2]: Biodistribution study in SKOV-3 tumor-bearing mice. The settings on record: intravenous, 2 mg Pt kg^−1, 4 hours post-injection. The class given is in vivo, athymic NCR nude mice. On the procedure:
All animal experiments were performed according to the protocols approved by the IACUC at the Biological Resource Centre, Singapore. Female athymic NCR nude mice (CrTac:Ncr-Foxn1^nu, 5-6 weeks old) were inoculated subcutaneously with 1×10^7 SKOV-3 cells suspended in 100 μL of PBS and 100 μL of Matrigel (BD Bioscience, of the United States of America) in the right flank. […] At predetermined time points, blood and organs were collected (4 mice per time point). The collected plasma and organs were decomposed in 65% (v/v) nitric acid at 60° C. for 2 hours, and the platinum concentration was measured by ICP-MS.

Series [3] relates to SKOV-3 human ovarian cancer xenograft. The experiment in a line: Antitumor efficacy study in a subcutaneous xenograft model. The class given is in vivo, NCR mice. Conditions: 1 mg Pt kg^−1 i.v. on days 0, 7 and 14. On the procedure: Female NCR mice bearing a subcutaneous SKOV-3 human ovarian cancer xenograft (120-150 mm^3) were randomly allocated to different treatments (10 mice per group). […] An isotonic dextrose solution (5% w/v) was used as a control. The tumor volume (mm^3) was calculated from the following formula: volume=(length×width^2)/2. In addition, a change in the body weight in the course of treatment was monitored as a measure of systemic toxicity.

A short description of series [4]: Blood chemistry analysis 38 days after first treatment. The class given is in vivo, athymic NCR mice. Conditions: 38-days endpoint, 1 mg Pt kg^−1 i.v. days 0, 7, 14. An excerpt:
The athymic NCR mice that received different treatments were sacrificed to collect blood, tumor, and organs 38 days after the first treatment. For blood chemistry analysis, blood samples were collected in heparinized tubes and then examined using the Vetscan VS2 blood chemistry analyzer (Abaxis Inc., of California of the United States of America). The levels of alkaline phosphatase (ALP), alanine aminotransferase (ALT) and other serum markers were examined. The excised tumors and organs were fixed with neutral buffered formalin, embedded in paraffin blocks, and then sectioned for hematoxylin and eosin (H&E) staining.

`N.N.[Cl][Pt][Cl]` [free cisplatin, cisplatin]: in series [1], the “time to complete release from the dialysis tube” value is not above 6 h. Also, in series [2], the “cisplatin dose delivered into the tumor mass” value is 1.53±0.48 % ID/g and the “platinum accumulation in the liver” value turned out to be 1.31±0.25 % ID/g. For the same compound, in series [3], the tumor growth result was “slightly delayed the tumor growth”. Moreover, the mean tumor volume in series [3] (day 38) is recorded as 299.7±117.7 mm^3. In series [4], the “ALP level in blood” value is on record as “elevated” and the “ALT level in blood” value is given as “elevated”.

These data come from US10993917B2, “Nanocomplex” (AGENCY FOR SCIENCE, TECHNOLOGY AND RESEARCH, priority 2016, dated 2021).
